Measurements published in patent US7273847B2, “Peptides with antioxidant and antimicrobial properties” (priority 2000, dated 2007).

Experiments:
surfactant lipids [1] = experiment: TBARS assay of copper-induced oxidation of surfactant lipids; type: biochemical
LDL [2] = experiment: TBARS assay of copper-induced oxidation of LDL; type: biochemical, human; settings: for TBARS LDL Malondialdehyde: mean ± S.E.M., n=3
Procedure: Substrates for lipid oxidation included mixtures of natural and synthetic glycerophospholipids that are found in pulmonary surfactant and human LDL. The surfactant lipid mix, composed of egg phosphatidylcholine, dipalmitoylphosphatidylcholine, cholesterol and 1-oleoyl-2-linoleoyl-sn-glycero-3-phosphocholine (1:1:0.15:0.15, w/w, respectively) (Avanti Polar Lipids) in chloroform, was dried to a film under nitrogen. Following hydration in PBS or 0.15 M NaCl for 30 min, multilamellar vesicles were generated by vigorous vortexing for 5 minutes. LDL were isolated from the plasma of normal blood donors by density gradient ultracentrifugation (density=1.019-1.063 g/ml) as previously described in Qin et al., Am. J. Physiol. 274(5 Pt 2): H1836-1840 (1998), and stored in saline-EDTA. Just prior to use, EDTA was removed by dialysis against PBS, and the concentration of LDL was determined by Lowry assay (in milligrams of LDL-associated protein).
Stock solutions of 10 mM CuSO4 were freshly prepared daily. Reaction mixtures containing 1 mg/mi surfactant lipids or 150 μg/ml LDL were incubated with 10 μM CuSO4 for 24 hours or 4 hours, respectively, in the presence of putative oxidation inhibitors or controls at 37° C. in a shaking water bath in accordance with the method of Gelvan et al., Biochim. Biophys. Acta 1035(3):353-360 (1990). Control reactions which included LDL only, 10 μM CuSO4 or protein controls of bovine serum albumin (BSA), rat IgG, recombinant MBP, rat serum and human complement C1q were performed concurrently with experimental samples. Thiobarbituric acid-reactive substances (TBARS) were measured using a method adapted from Gelvan et al., Biochim. Biophys. Acta 1035(3):353-360 (1990). Samples and 0-10 μM […] standards were developed by addition of a solution composed of 0.375% thiobarbituric acid, 15% trichloroacetic acid, and 0.25N HCl at a volume ratio of 1:2, sample: developer. Following incubation at 95° C. for 30 minutes and centrifugation at 14,000 rpm for 15 minutes, an aliquot was read at 540 nm in a spectrophotometer. For continuous assessment of lipid oxidation, the accumulation of conjugated dienes during LDL oxidation was monitored spectrophotometrically in accordance with the method of Esterbauer et al., Free Rad. Med. Biol. 13, 341-390 (1992). Mixtures of 150 μg/ml LDL, 10 μM copper, and various amounts of surfactant proteins or control proteins were placed in quartz cuvettes and allowed to oxidize at room temperature over 335 minutes. Conjugated diene formation was assessed by measuring absorbance at 234 nm in a spectrophotometer.
The data are set forth graphically in FIG. 3. Various concentrations of recombinant wild type SP-A (circle), mutant SP-A containing a deletion of the collagen-like domain (square) and mutant SP-A containing only the neck and C-lectin domain (CLD) (triangle) were incubated with LDL in the presence of 10 μM Cu^2+, and lipid peroxidation was quantified by TBARS assay. Data are means, n=3-4.

E. coli K12 = experiment: Radial diffusion growth inhibition in agar; type: cell-based; settings: for Inhibition of E. coli growth in presence of anti-mouse SP-A / anti-mouse SP-D antibodies / Inhibition of E. coli growth in presence of excess LPS vesicles: radial diffusion; for Inhibition of E. coli growth in presence of excess LPS vesicles: for SP-A>SP-D
Procedure: (§1) A radial diffusion method was therefore used to examine the effect of the collectins and their individual structural domains on the growth of E. coli that were immobilized in agar (FIGS. 8,9). Wells were bored into plates containing agar impregnated with 2×10^6 E. coli/ml or GBS. Proteins to be tested were introduced into the wells and the plates were incubated overnight at 37° C.

GBS = experiment: Radial diffusion growth inhibition in agar; type: cell-based; settings: 0.5 and 5.0 μg added
Procedure: as §1

LDL [3] = experiment: Western (immunoblot) analysis of protein carbonyl derivatives formed during copper mediated LDL oxidation; type: biochemical, human; settings: SP-A 10 μg/ml, SP-D 1 μg/ml; alkylated SP-A 50 μg/ml, alkylated SP-D 10 μg/ml
Procedure: Proteins were analyzed for carbonyl modification of amino acid side groups that occur during lipid oxidation, as described in Levine et al., Methods Enzymol. 186, 464-478 (1990). Briefly, proteins that were included in reactions mixtures with LDL and 10 μM copper were derivatized to 2,4-dinitrophenylhydrazones (DNP-hydrazones) by reaction with 2,4-dinitrophenylhydrazine (DNPH), size fractionated by 8-16% SDS-PAGE under reducing conditions and electrophorectically transferred to nitrocellulose membranes (Oxyblot, Intergen). The membrane was sequentially incubated with a rabbit anti-DNP IgG and a horseradish peroxidase-conjugated goat anti-rabbit IgG. Blots were developed by HRP-dependent oxidation of a chemiluminescent substrate, and visualized using autoradiography.
To determine if the surfactant proteins act as sinks for reactive lipid intermediates, covalent modification of SP-A and SP-D during LDL oxidation was assessed using a western analysis technique that detects carbonyl adducts (Levine et al., Methods Enzymol. 186: 464-78 (1990)). As depicted by FIG. 4, oxidative modification of proteins that occurred during copper induced LDL oxidation were determined by Western analysis using an antibody to DNP-derivatized carbonyl moieties. Reaction mixtures contained LDL only, LDL+Cu^2+, LDL+Cu^2++albumin+10 μg/ml SP-A, LDL+Cu^2++albumin+1 μg/ml SP-D, LDL+Cu^2++albumin, LDL+Cu^2++albumin+50 μg/ml iodoacetamide treated SP-A, LDL+Cu^2++albumin+10 μg/ml iodoacetamide treated SP-D, 50 μg/ml albumin+50 μg/ml iodoacetamide treated SP-A, albumin+10 μg/ml iodoacetamide treated SP-D.

surfactant lipids [4] = settings: comparison value; read-out: I.C.50 of antioxidant serum lipoprotein; cited from earlier work

## Clq: human complement C1q, the first component of complement [reference compound]
Surfactant lipids [1]; 50 μg/ml control protein
  Protection from oxidation of surfactant lipids: no protection from oxidation
Surfactant lipids [1]; Lipid + Cu2+ + 50 μg/ml protein, mean ± S.E.M., n=3
  TBARS Surfactant lipids Malondialdehyde: 1.15 ± 0.07 µM
LDL [2]; 50 μg/ml
  Effect on LDL lipid oxidation: no effect on LDL lipid oxidation
LDL [2]; LDL + Cu2+ + 50 μg/ml protein
  TBARS LDL Malondialdehyde: 4.16 ± 0.05 µM

## lysozyme: positive control protein lysozyme [reference compound]
E. coli K12; 0.5 and 5.0 μg added
  Clearing in E. coli plates: dose-dependent clearing
GBS
  Clearing in GBS plates: dose-dependent clearing

## recombinant mouse SP-A: recombinant mouse SP-A
E. coli K12
  Inhibition of E. coli growth in presence of anti-mouse SP-A / anti-mouse SP-D antibodies: blocked
  Inhibition of E. coli growth in presence of excess LPS vesicles: blocked

B1: alkylated SP-D: rat SP-D alkylated by incubation with 0.5 M iodoacetamide (protein, UniProt P35248 20-374, looked up)
Pulmonary …: AEMKTLSQRSITNTCTLVLCSPTENGLPGRDGRDGREGPRGEKGDPGLPGPMGLSGLPGPRGPVGPKGENGSAGEPGPKGERGLVGPPGSPGISGPAGKEGPSGKQGNIGPQGKPGPKGEAGPKGEVGAPGMQGSAGAKGPAGPKGERGAPGEQGAPGNAGAAGPAGPAGPQGAPGSRGPPGLKGDRGAPGDRGIKGESGLPDSAALRQQMEALNGKLQRLEAAFSRYKKAALFPDGQSVGDKIFRAANSEEPFEDAKEMCRQAGGQLASPRSATENAAVQQLVTAHSKAAFLSMTDVGTEGKFTYPTGEALVYSNWAPGEPNNNGGAENCVEIFTNGQWNDKACGEQRLVICEF
modifications: alkylated with iodoacetamide
notes: rat SP-D alkylated by incubation with 0.5 M iodoacetamide
LDL [3]
  LDL oxidation in carbonyl Western analysis: neither alkylated SP-A at 50 μg/ml or alkylated SP-D at 10 μg/ml inhibited lipid oxidation
LDL [2]; LDL + Cu2+ + 10 μg/ml protein
  TBARS LDL Malondialdehyde: 3.92 ± 0.14 µM

B2: recombinant mouse SP-D: recombinant mouse SP-D (protein)
chain: AEMKSLSQRSVPNTCTLVMCSPTENGLPGRDGRDGREGPRGEKGDPGLPGPMGLSGLQGPTGPVGPKGENGSAGEPGPKGERGLSGPPGLPGIPGPAGKEGPSGKQGNIGPQGKPGPKGEAGPKGEVGAPGMQGSTGAKGSTGPKGERGAPGVQGAPGNAGAAGPAGPAGPQGAPGSRGPPGLKGDRGVPGDRGIKGESGLPDSAALRQQMEALKGKLQRLEVAFSHYQKAALFPDGRSVGDKIFRTADSEKPFEDAQEMCKQAGGQLASPRSATENAAIQQLITAHNKAAFLSMTDVGTEGKFTYPTGEPLVYSNWAPGEPNNNGGAENCVEIFTNGQWNDKACGEQRLVICEF
E. coli K12
  Inhibition of E. coli growth in presence of anti-mouse SP-A / anti-mouse SP-D antibodies: blocked
  Inhibition of E. coli growth in presence of excess LPS vesicles: blocked

B3: ApoAIV: antioxidant serum lipoprotein ApoAIV (protein, UniProt P06727 21-396, looked up)
Apolipoprotein A-IV: EVSADQVATVMWDYFSQLSNNAKEAVEHLQKSELTQQLNALFQDKLGEVNTYAGDLQKKLVPFATELHERLAKDSEKLKEEIGKELEELRARLLPHANEVSQKIGDNLRELQQRLEPYADQLRTQVSTQAEQLRRQLTPYAQRMERVLRENADSLQASLRPHADELKAKIDQNVEELKGRLTPYADEFKVKIDQTVEELRRSLAPYAQDTQEKLNHQLEGLTFQMKKNAEELKARISASAEELRQRLAPLAEDVRGNLRGNTEGLQKSLAELGGHLDQQVEEFRRRVEPYGENFNKALVQQMEQLRQKLGPHAGDVEGHLSFLEKDLRDKVNSFFSTFKEKESQDKTLSLPELEQQQEQQQEQQQEQVQMLAPLES
Surfactant lipids [4]
  IC50: 50 nM
